Columns and labels:
Assay type in all cases: functional
[1] = organism: Cavia porcellus; experiment: In vitro for cardiac calcium channel (CC) agonist activity; Active; settings: read-out: ED50 (the source's name)
[2] = organism: Cavia porcellus; experiment: In vitro for smooth muscle calcium channel antagonist activity; settings: Muscle tissue
[3] = organism: Cavia porcellus; experiment: In vitro cardiac calcium channel (CC) agonist activity; settings: read-out: ED50 (the source's name)
[4] = organism: Cavia porcellus; experiment: In vitro release of nitric oxide by nitrite quantitation in the absence of N-acetyl-cysteamine by Griess reaction
[5] = organism: Cavia porcellus; experiment: In vitro release of nitric oxide by nitrite quantitation in the presence of N-acetyl-cysteamine by Griess reaction

Row | EC50 [1] [nM] | IC50 [2] [µM] | EC50 [3] [µM] | Compound | Release [4] [%] | Release [5] [%]
1 | 920 | 16 |  | CO/C(O)=C1\C(C)=NC(C)=C([N+](=O)[O-])[C@H]1c1ccccc1C(F)(F)F |  | 
2 |  | 16 | 0.92 | CC1=NC(C)=C([N+](=O)[O-])[C@@H](c2ccccc2C(F)(F)F)/C1=C(\O)OCCO[N+](=O)[O-] |  | 
3 |  | 0.079 | 16 | CC1=NC(C)=C([N+](=O)[O-])[C@H](c2ccccc2C(F)(F)F)/C1=C(\O)OCCO[N+](=O)[O-] |  | 
4 |  |  |  | CC1=NC(C)=C([N+](=O)[O-])C(c2ccccc2C(F)(F)F)/C1=C(\O)OCCO[N+](=O)[O-] (stereo not given) | 1.09 | 2.7
5 |  |  |  | O=[N+]([O-])OCC(CO[N+](=O)[O-])O[N+](=O)[O-] [NITROGLYCERIN] | 0.18 | 5.3
